Four compounds from publication PMC4981717, “Lcp1 Is a Phosphotransferase Responsible for Ligating Arabinogalactan to Peptidoglycan in Mycobacterium tuberculosis” (mBio, 2016) can be followed below.

Values joined by “and” are separate entries in the source; they are usually repeats but may differ in a detail not shown here. Identical values can stand only once. “Also recorded” adds a separate entry of the source.

The target in this assay is ^MtbLcp1 (Mycobacterium tuberculosis, UniProt P96872). Put plainly: Intrinsic tryptophan fluorescence (ITF) ligand binding of linker unit analogues to recombinant ^MtbLcp1. The settings on record: for Bmax: ITF saturation binding, change in fluorescence emission at λ = 341 nm; for Kd: ITF, single-site saturation model, 25°C, 0.026 µM ^MtbLcp1, λ = 341 nm, read-out: equilibrium dissociation constant, KD. How it is done: Intrinsic tryptophan fluorescence (ITF) ligand binding experiments of ^MtbLcp1 with saccharide ligands were conducted on a Hitachi F7000 fluorescence spectrophotometer with the temperature thermostatically regulated to 25°C. ^MtbLcp1 was diluted to 0.026 µM with dialysis buffer, and fluorescence spectra were measured at an excitation wavelength of 280 nm and emission wavelength of 300 to 400 nm with an excitation and emission slit width of 5 nm using a 500-µl crystal cuvette. ITF maximum (Femission^max) was recorded at λ = 341 nm, providing a basal Femission coordinate for the collection of subsequent ITF data. Increasing concentrations of ligands representing the linker unit (compounds 1 to 4) were added to the cuvette. The change in fluorescence emission (ΔFemission) was calculated by subtracting Femission (recorded 2 min after each ligand addition) from Femission^max. Changes of background fluorescence observed upon addition of equivalent volumes of dialysis buffer (the solvent in which compounds 1 to 4 were dissolved) were subtracted from the overall change in fluorescence, and the data were then plotted against ligand concentration, [L] (3 independent biological experiments). A plot of ΔFemission at λ = 341 nm versus [L] was fitted to a one-site specific binding equation using GraphPad Prism 5 software: ΔFemission = Fmax × [L]/(KD + [L]).
^MtbLcp1, sequence (P96872 entry or part of it): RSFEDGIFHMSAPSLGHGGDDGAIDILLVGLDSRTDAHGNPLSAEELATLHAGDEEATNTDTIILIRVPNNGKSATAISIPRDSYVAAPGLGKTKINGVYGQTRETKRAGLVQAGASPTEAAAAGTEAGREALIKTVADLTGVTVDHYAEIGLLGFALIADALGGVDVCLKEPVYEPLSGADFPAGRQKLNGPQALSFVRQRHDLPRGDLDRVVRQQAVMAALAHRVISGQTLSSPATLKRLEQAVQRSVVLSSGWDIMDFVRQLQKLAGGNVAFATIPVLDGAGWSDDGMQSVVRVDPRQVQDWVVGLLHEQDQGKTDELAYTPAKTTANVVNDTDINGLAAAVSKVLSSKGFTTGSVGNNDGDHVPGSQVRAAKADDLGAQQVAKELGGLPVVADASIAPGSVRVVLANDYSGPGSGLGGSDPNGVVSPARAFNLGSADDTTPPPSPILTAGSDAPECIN

One may read the Kd as the equilibrium constant for the complex coming apart. Consider `CCCCCCCCO[C@H]1O[C@H](CO)[C@@H](O)[C@H](O[C@@H]2O[C@@H](C)[C@H](O)[C@@H](O)[C@H]2O)[C@H]1NC(C)=O` [compound 1, octyl α-L-rhamnopyranosyl-(1→3)-2-acetamido-2-deoxy-α-D-glucopyranoside], for which the Bmax is given as 1448 and the Kd was found to be 57.7 µM.
For the compound `CCCCCCCCOC1OC(CO)C(O)C(OC2OC(C)C(OC3OC(C(CO)OC4OC(C(O)CO)C(O)C4O)C(O)C3O)C(O)C2O)C1NC(C)=O` [compound 2, octyl-β-D-galactofuranosyl-(1→5)-β-D-galactofuranosyl-(1→4)-α-L-rhamnopyranosyl-(1→3)-2-acetamido-2-deoxy-α-D-glucopyranoside], the Bmax turned out to be 1585 and the Kd was 5.13 µM. In addition, where the note is “tetrasaccharide ligand versus linker unit disaccharide (compound 1)”, the “fold increase in affinity” value is listed as ~ 10 fold.
For the compound `CCCCCCCCOC1OC(CO)C(O)C(OC2OC(C)C(OC3OC(C(CO)OC4OC(C(O)COC5OC(C(O)CO)C(O)C5O)C(O)C4O)C(O)C3O)C(O)C2O)C1NC(C)=O` [compound 3, octyl-β-D-galactofuranosyl-(1→6)-β-D-galactofuranosyl-(1→5)-β-D-galactofuranosyl-(1→4)-α-L-rhamnopyranosyl-(1→3)-2-acetamido-2-deoxy-α-D-glucopyranoside], the Bmax is on record as 1498 and the equilibrium dissociation constant (Kd) came out at 20.4 µM. The “fold decrease in binding affinity” value (additional Galf residue, versus compound 2) was 4 fold.
For `CCCCCCCCOC1OC(C)C(OC2OC(C(O)CO)C(O)C2O)C(O)C1O` [compound 4, D-Galf-β(1→4)-L-Rhap], the Bmax was 177 and ~ 177.6; the Kd is 97.6 µM and ~97.6 µM. In addition, the “binding affinity toward ^MtbLcp1 in words” value (ITF assays, above background fluorescence) is given as “no significant binding affinity (above background); also recorded: no recordable affinity”.
